Source: patent US11072599B2, “Pyrazole compounds and uses thereof” (Yissum Research Development Company of the Hebrew …, priority 2017, dated 2021)

system: RKO colorectal cells; assay: Dose-response compound screen in RKO cells (Western blot, indicators of CKIα inhibition); assay type: cell-based; conditions: 16 hours at 37° C., 0.167-1.5 μM or 0.11-1 μM, ImageJ, 1 = mock (DMSO)-treated cells
Protocol: RKO cells were incubated for 16 hours at 37° C. with indicated concentrations of the compounds, or with the vehicle (DMSO) alone (−) and analyzed by Western Blot. Shown are Western Blot signals of β-catenin and p53 stabilization and phosphorylation of H2AX (γH2AX), a marker of DNA damage.
RKO colorectal cells were incubated with serial dilutions of each of the compounds (at a concentration range of 0.167-1.5 μM or 0.11-1 μM in DMSO) for 16 hours at 37° C. Cells were washed with PBS and cell pellets were incubated with ice cold protein lysis buffer containing protease inhibitor cocktail ( 1/200; Calbiochem) and phosphatase inhibitors (20 mM p-nitrophenyl phosphate (PNPP), 20 mM β-glycerophosphate and 300 nM okadaic acid). Western blot (WB) analysis was performed by means of standard techniques. Blots were incubated with antibodies detecting β-catenin ( 1/2,500; BD Transduction), p53 (DO-1&1801 hybridoma mix; dilution of 1:20 of supernatants from each), CKIα (C-19; 1/1,000; Santa Cruz Biotechnology) and phospho-histone H2AX (S139; 1/1,000; Millipore). Secondary antibodies were HRP-linked goat anti-mouse, goat anti-rabbit and rabbit anti-goat antibodies (all 1/10,000; Jackson). Blots were developed using ECL (GE Healthcare). Signal intensities corresponding to β-catenin and p53 stabilization and phosphorylation of H2AX (γH2AX—a marker of DNA damage)-indicators of CKIα inhibition (Elyada et al., Nature […]), were analyzed by the ImageJ software. Relative signal intensities are depicted in Table 1 (see also in FIG. 1), where values of 1 correspond to signals of mock (DMSO)-treated cells.

Row | Compound | H2AX phosphorylation (γH2AX, relative signal intensity) | p53 stabilization (relative signal intensity) | β-Catenin stabilization (relative signal intensity)
1 | Cn1ncc(-c2cc(N[C@H]3CC[C@H](N)CC3)ncc2Cl)c1CC1CC1 [A104, (1r,4r)-N1-(5-chloro-4-(5-(cyclopropylmethyl)-1-methyl-1H-pyrazol-4-yl)pyridin-2-yl)cyclohexane-1,4-diamine] | 20 | 20 | 9
2 | Cn1ncc(-c2cccc(N[C@H]3CC[C@H](N)CC3)n2)c1CC1CC1 [A105, (1r,4r)-N1-(6-(5-(cyclopropylmethyl)-1-methyl-1H-pyrazol-4-yl)pyridin-2-yl)cyclohexane-1,4-diamine] | 1 | 2 | 5
3 | Cn1ncc(-c2cc(N[C@H]3CC[C@H](N)CC3)ncn2)c1CC1CC1 [A106, (1r,4r)-N1-(6-(5-(cyclopropylmethyl)-1-methyl-1H-pyrazol-4-yl)pyrimidin-4-yl)cyclohexane-1,4-diamine] | 1 | 1 | 9
4 | Cn1ncc(-c2cc(N[C@H]3CC[C@H](N)CC3)nc(N)n2)c1CC1CC1 [A107, N4-((1r,4r)-4-aminocyclohexyl)-6-(5-(cyclopropylmethyl)-1-methyl-1H-pyrazol-4-yl)pyrimidine-2,4-diamine] | 1 | 2 | 4
5 | Cn1ncc(-c2cc(O)nc(N[C@H]3CC[C@H](N)CC3)n2)c1CC1CC1 [A108, 2-(((1r,4r)-4-aminocyclohexyl)amino)-6-(5-(cyclopropylmethyl)-1-methyl-1H-pyrazol-4-yl)pyrimidin-4-ol] | 1 | 1 | 9
6 | Cc1ccnn1[C@H]1CC[C@H](Nc2ncc(Cl)c(-c3cnn(C)c3CC3CC3)n2)CC1 [A102] | 1 | 1 | 4
